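Cells were grown in 96-well plates and exposed to each compound for 48 hours at five concentrations; endpoints were interpolated linearly between bracketing concentrations, or set to the highest concentration if not reached. GI50 is the concentration that inhibits growth by half. TGI: total growth inhibition.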
Experiments:
Assay in all cases: NCI-60 cell line screen, 48 h
BT-549 breast = system: BT-549 breast
HCT-116 colon = system: HCT-116 colon
HCT-15 colon = system: HCT-15 colon
HL-60(TB) leukemia = system: HL-60(TB) leukemia
HS 578T breast = system: HS 578T breast
K-562 leukemia = system: K-562 leukemia
MALME-3M melanoma = system: MALME-3M melanoma
MDA-MB-231 breast = system: MDA-MB-231 breast
MDA-MB-435 = system: MDA-MB-435
NCI-H23 lung = system: NCI-H23 lung
OVCAR-8 ovarian = system: OVCAR-8 ovarian
RPMI-8226 leukemia = system: RPMI-8226 leukemia
SF-268 CNS = system: SF-268 CNS
SF-539 CNS = system: SF-539 CNS
SK-MEL-5 melanoma = system: SK-MEL-5 melanoma
SNB-75 CNS = system: SNB-75 CNS
RXF 393 renal = system: RXF 393 renal

| Compound | TGI (BT-549 breast) | TGI (HCT-116 colon) | TGI (HCT-15 colon) | TGI (HL-60(TB) leukemia) | TGI (HS 578T breast) | TGI (K-562 leukemia) | TGI (MALME-3M melanoma) | TGI (MDA-MB-231 breast) | TGI (MDA-MB-435) | TGI (NCI-H23 lung) | TGI (OVCAR-8 ovarian) | TGI (RPMI-8226 leukemia) | TGI (SF-268 CNS) | TGI (SF-539 CNS) | TGI (SK-MEL-5 melanoma) | TGI (SNB-75 CNS) | GI50 (HCT-116 colon) | GI50 (MDA-MB-435) | TGI (RXF 393 renal) | GI50 (SF-539 CNS) |
| --- | --- | --- | --- | --- | --- | --- | --- | --- | --- | --- | --- | --- | --- | --- | --- | --- | --- | --- | --- | --- |
| CCOC(=O)c1[nH]c2ccccc2c1C(=O)C[C@H](NC(=O)C(F)(F)F)C(=O)OC | > 100 µM | > 100 µM | > 100 µM | > 100 µM | > 100 µM | > 100 µM | > 100 µM | > 100 µM | > 100 µM | > 100 µM | > 100 µM | > 100 µM | > 100 µM | > 100 µM | > 100 µM | > 100 µM | – | – | – | – |
| CC(=O)Oc1cc2c(cc1OC(C)=O)[C@H]1CC[C@]3(C)[C@@H](OC(C)=O)CC[C@H]3[C@@H]1CC2 | 11.2 µM | 18.5 µM | 15.4 µM | – | 25.2 µM | 16.8 µM | – | 26.3 µM | 9.65 µM | 22.9 µM | 28 µM | 8.43 µM | 22.5 µM | 15.9 µM | 20.4 µM | 4.42 µM | 5.08 µM | 0.316 µM | 16.5 µM | 3.53 µM |
| O=C(/C=C/c1ccco1)CC(=O)/C=C/c1ccco1 | 55.4 µM | 17.4 µM | 20.2 µM | 11.7 µM | 26.8 µM | 26.7 µM | 20.9 µM | – | 22.1 µM | 17.4 µM | > 31.6 µM | 23.9 µM | – | 21.2 µM | 18.1 µM | > 31.6 µM | – | – | 10.6 µM | – |
| O=c1[nH]nc(Cc2ccc(Cl)cc2)n1/N=C\c1ccc(/C=N/n2c(Cc3ccc(Cl)cc3)n[nH]c2=O)cc1 | > 100 µM | > 100 µM | > 100 µM | > 100 µM | > 100 µM | > 100 µM | > 100 µM | 70.5 µM | > 100 µM | > 100 µM | > 100 µM | > 100 µM | > 100 µM | – | > 100 µM | – | – | – | > 100 µM | – |
| COc1ccc(/C=C/C(=O)N[C@@H]2C(=O)N3[C@@H]2SC(C)(C)[C@@H]3C(=O)O)cc1 | > 100 µM | > 100 µM | > 100 µM | > 100 µM | > 100 µM | > 100 µM | – | > 100 µM | > 100 µM | > 100 µM | > 100 µM | > 100 µM | > 100 µM | > 100 µM | > 100 µM | > 100 µM | – | – | > 100 µM | – |
| Cc1c2c(n(Cc3ccccn3)c1C)NN=C(C#N)S2(=O)=O | > 100 µM | > 100 µM | > 100 µM | – | > 100 µM | – | – | > 100 µM | > 100 µM | > 100 µM | > 100 µM | – | > 100 µM | > 100 µM | > 100 µM | > 100 µM | – | – | – | – |
| C=C1c2nc3ccccc3n2C=C(c2ccccc2)N1c1ccccc1 | 98.5 µM | > 100 µM | 51.9 µM | > 100 µM | – | > 100 µM | > 100 µM | > 100 µM | > 100 µM | > 100 µM | > 100 µM | > 100 µM | – | > 100 µM | 83.3 µM | > 100 µM | – | – | > 100 µM | – |
| COc1ccc2oc(C(=O)N3CC(CCl)c4ccc([N+](=O)[O-])cc43)cc2c1 (centres undefined) | > 100 µM | > 100 µM | – | – | 62.2 µM | > 100 µM | – | 54.5 µM | > 100 µM | > 100 µM | > 100 µM | > 100 µM | 53.8 µM | > 100 µM | > 100 µM | 79.3 µM | – | – | 34 µM | – |
| CN(CCCCN(C)CCc1ccc(Cl)c(Cl)c1)CCCCN1CCCC1 | 4.6 µM | 2.93 µM | 3.73 µM | 3.97 µM | 3.23 µM | – | 3.46 µM | 2.25 µM | 0.904 µM | 3.41 µM | 6.25 µM | – | 3.12 µM | – | 3.19 µM | 3.72 µM | – | – | 3.03 µM | – |
| COc1ccccc1Cn1nc(OC)c2cc([N+](=O)[O-])ccc21 | 46.2 µM | > 100 µM | > 100 µM | > 100 µM | > 84.7 µM | > 100 µM | > 100 µM | > 67.7 µM | > 100 µM | > 89.2 µM | > 100 µM | – | 36.9 µM | > 53.5 µM | > 100 µM | 18.7 µM | – | – | 11.2 µM | – |
| COc1ccc2[nH]c3c(c2c1)COc1ccccc1C3=O | > 100 µM | > 100 µM | > 100 µM | > 100 µM | > 100 µM | > 100 µM | > 100 µM | > 100 µM | > 100 µM | > 100 µM | > 100 µM | > 100 µM | > 100 µM | > 100 µM | > 100 µM | > 100 µM | – | – | – | – |
| Oc1c(C2=N[C@H]3CCCC[C@@H]3N2)ccc2ccccc12 | > 100 µM | > 100 µM | > 100 µM | > 100 µM | > 100 µM | > 100 µM | > 100 µM | > 100 µM | > 100 µM | > 100 µM | > 100 µM | > 100 µM | > 100 µM | > 100 µM | > 100 µM | > 100 µM | – | – | – | – |
| CN(/N=C/C=N/N(C)C1=NCCCCN1)C1=NCCCCN1 | > 100 µM | > 100 µM | > 100 µM | – | > 100 µM | > 100 µM | > 100 µM | > 100 µM | > 100 µM | > 100 µM | > 100 µM | – | > 100 µM | > 100 µM | > 100 µM | > 100 µM | – | – | > 100 µM | – |
| COc1cccc(N2C(=O)CSC2c2cc(OC)c(OC)c(OC)c2)c1 (centres undefined) | 64.6 µM | > 100 µM | > 100 µM | 98 µM | > 100 µM | > 100 µM | – | > 100 µM | 17.6 µM | > 100 µM | > 100 µM | > 100 µM | > 100 µM | > 100 µM | > 100 µM | – | – | – | – | – |
| CCOC(=O)CCC(NC(=O)c1ccc(OCc2nc3ccccc3n3cccc23)cc1)C(=O)OCC (centres undefined) | > 100 µM | > 100 µM | > 100 µM | > 100 µM | > 100 µM | > 100 µM | > 100 µM | > 100 µM | > 100 µM | > 100 µM | > 100 µM | – | > 100 µM | > 100 µM | > 100 µM | > 100 µM | – | – | > 100 µM | – |
| COc1cc([C@@H]2c3[nH]c4ccccc4c3C(Nc3ccc([N+](=O)[O-])cc3)[C@H]3COC(=O)N23)cc(OC)c1O (some centres undefined) | 4.87 µM | 1.42 µM | 29.2 µM | 0.048 µM | 2.79 µM | 6.97 µM | 1.31 µM | 0.648 µM | 2.45 µM | 1.51 µM | 0.86 µM | – | 5.35 µM | 0.302 µM | 0.663 µM | 1.66 µM | – | – | 1.04 µM | – |
| COC(=O)C(Cc1ccccc1)OC(=O)C(N)CC(=O)O (centres undefined) | > 100 µM | > 100 µM | > 100 µM | – | > 100 µM | > 100 µM | > 100 µM | > 100 µM | > 100 µM | > 100 µM | > 100 µM | > 100 µM | > 100 µM | > 100 µM | > 100 µM | > 100 µM | – | – | > 100 µM | – |
| c1cncc(-c2ncc3cccnc3n2)c1 | > 100 µM | > 100 µM | > 100 µM | > 100 µM | > 100 µM | > 100 µM | > 100 µM | > 100 µM | – | > 100 µM | > 100 µM | > 100 µM | – | > 100 µM | > 100 µM | > 100 µM | – | – | > 100 µM | – |
| O=C(O)c1ccc(C(c2c(O)c3ccccc3oc2=O)c2c(O)c3ccccc3oc2=O)cc1 | > 100 µM | > 100 µM | > 100 µM | 0.129 µM | 62.7 µM | > 100 µM | – | > 100 µM | > 100 µM | > 100 µM | > 100 µM | > 100 µM | > 100 µM | > 100 µM | > 100 µM | – | – | – | > 100 µM | – |
| COc1cccc(/C=C2\CCCCCC2=O)c1 | > 100 µM | > 100 µM | > 100 µM | – | > 100 µM | > 100 µM | > 100 µM | > 100 µM | > 100 µM | > 100 µM | – | > 100 µM | > 100 µM | – | > 100 µM | > 100 µM | – | – | – | – |
| O=C(CCc1cccc(O)c1)NCCc1ccc(O)cc1 | > 100 µM | > 100 µM | > 100 µM | > 100 µM | > 100 µM | > 100 µM | > 100 µM | > 100 µM | > 100 µM | > 100 µM | > 100 µM | – | > 100 µM | > 100 µM | > 100 µM | – | – | – | > 100 µM | – |
| CCOC(=O)[C@@]12CCC(C1=O)[C@](C)(O)C[C@@H]2c1ccccc1 | > 100 µM | > 100 µM | > 100 µM | > 100 µM | 61.7 µM | > 100 µM | > 100 µM | > 100 µM | 38.4 µM | > 100 µM | > 100 µM | – | > 100 µM | > 100 µM | > 100 µM | > 100 µM | – | – | > 100 µM | – |
| CCCCn1c2c(n(CCCC)c1=S)-c1c(n(CCCC)c(=S)n1CCCC)SSSS2 | 28.1 µM | 11.8 µM | 4.45 µM | – | 46.3 µM | – | 2.03 µM | 2.28 µM | 23.9 µM | 14.3 µM | 18.1 µM | 10.2 µM | 21.4 µM | 2.94 µM | 8.95 µM | 37.7 µM | – | – | 14.6 µM | – |

Source: PubChem BioAssay (NCI)
